# According to the supplement of paper PMC10307832:
# Legend:
# Test in all cases: relative viability (nuclei count vs DMSO), 5 days (fraction); higher = more cells survive
# [1] = test system: NCI-H1793
# Outline: (§1)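 Values are medians from duplicate plates. Each reflects relative viability, defined as the nuclei count of treated wells over that of vehicle wells. Lung cancer cell lines in 1536-well plates were pin-tool dosed one day after seeding with one drug alone or with a fixed anchor-drug dose plus five library-drug doses (not always all listed) in √10 steps, then fixed, stained and imaged at 4× after 5 days.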
# [2] = test system: LCLC-97TM1
# Outline: as §1
# [3] = test system: NCI-H1993
# Outline: as §1
# [4] = test system: PC-3 [JPC-3]
# Outline: as §1
# [5] = test system: NCI-H2009
# Outline: as §1
# [6] = test system: NCI-H520
# Outline: as §1
# [7] = test system: NCI-H1755
# Outline: as §1
# [8] = test system: NCI-H647
# Outline: as §1
# [9] = test system: NCI-H460
# Outline: as §1
# [10] = test system: SW 1573
# Outline: as §1
# [11] = test system: SK-LU-1
# Outline: as §1
# [12] = test system: NCI-H1944
# Outline: as §1
# [13] = test system: ABC-1
# Outline: as §1
# [14] = test system: EMC-BAC-2
# Outline: as §1
# [15] = test system: NCI-H441
# Outline: as §1
# [16] = test system: NCI-H2126
# Outline: as §1
# [17] = test system: NCI-H2347
# Outline: as §1
# [18] = test system: PC-14
# Outline: as §1
# [19] = test system: NCI-H1666
# Outline: as §1
# [20] = test system: NCI-H2170
# Outline: as §1
# [21] = test system: NCI-H1975
# Outline: as §1
# [22] = test system: NCI-H1355
# Outline: as §1
# [23] = test system: NCI-H727
# Outline: as §1
smiles,measurement,setting,value
Cc1cnc(-c2cnc(NCCNc3ccc(C#N)cn3)nc2-c2ccc(Cl)cc2Cl)[nH]1 + Cc1nc(Nc2ncc(C(=O)Nc3c(C)cccc3Cl)s2)cc(N2CCN(CCO)CC2)n1 [Dasatinib] (partner 0.075 µM),relative viability,[1]; first compound 0.08 µM,0.384
same,relative viability,[1]; first compound 0.253 µM,0.365
same,relative viability,[1]; first compound 0.8 µM,0.411
same,relative viability,[1]; first compound 2.53 µM,0.468
same,relative viability,[2]; first compound 0.08 µM,0.796
same,relative viability,[2]; first compound 0.8 µM,0.887
same,relative viability,[2]; first compound 2.53 µM,0.741
same,relative viability,[3]; first compound 0.08 µM,0.58
same,relative viability,[3]; first compound 0.253 µM,0.568
same,relative viability,[3]; first compound 0.8 µM,0.499
same,relative viability,[3]; first compound 2.53 µM,0.996
same,relative viability,[4]; first compound 0.08 µM,0.926
same,relative viability,[4]; first compound 0.253 µM,0.88
same,relative viability,[4]; first compound 0.8 µM,0.929
same,relative viability,[4]; first compound 2.53 µM,1
same,relative viability,[5]; first compound 0.08 µM,0.322
same,relative viability,[5]; first compound 0.253 µM,0.284
same,relative viability,[5]; first compound 0.8 µM,0.282
same,relative viability,[5]; first compound 2.53 µM,0.231
same,relative viability,[6]; first compound 0.08 µM,0.219
same,relative viability,[6]; first compound 0.253 µM,0.186
same,relative viability,[6]; first compound 0.8 µM,0.245
same,relative viability,[6]; first compound 2.53 µM,0.299
same,relative viability,[7]; first compound 0.08 µM,0.435
same,relative viability,[7]; first compound 0.253 µM,0.427
same,relative viability,[7]; first compound 0.8 µM,0.398
same,relative viability,[7]; first compound 2.53 µM,0.399
same,relative viability,[8]; first compound 0.08 µM,0.229
same,relative viability,[8]; first compound 0.253 µM,0.197
same,relative viability,[8]; first compound 0.8 µM,0.179
same,relative viability,[8]; first compound 2.53 µM,0.223
same,relative viability,[9]; first compound 0.08 µM,0.543
same,relative viability,[9]; first compound 0.253 µM,0.404
same,relative viability,[9]; first compound 0.8 µM,0.557
same,relative viability,[9]; first compound 2.53 µM,0.454
same,relative viability,[10]; first compound 0.08 µM,0.687
same,relative viability,[10]; first compound 0.253 µM,0.395
same,relative viability,[10]; first compound 0.8 µM,0.493
same,relative viability,[10]; first compound 2.53 µM,0.168
same,relative viability,[11]; first compound 0.08 µM,0.185
same,relative viability,[11]; first compound 0.253 µM,0.185
same,relative viability,[11]; first compound 0.8 µM,0.18
same,relative viability,[11]; first compound 2.53 µM,0.226
same,relative viability,[12]; first compound 0.08 µM,0.24
same,relative viability,[12]; first compound 0.8 µM,0.251
same,relative viability,[12]; first compound 2.53 µM,0.316
same,relative viability,[13]; first compound 0.08 µM,0.553
same,relative viability,[13]; first compound 0.8 µM,0.476
same,relative viability,[13]; first compound 2.53 µM,0.417
same,relative viability,[14]; first compound 0.08 µM,0.409
same,relative viability,[14]; first compound 0.253 µM,0.336
same,relative viability,[14]; first compound 0.8 µM,0.317
same,relative viability,[14]; first compound 2.53 µM,0.332
same,relative viability,[15]; first compound 0.08 µM,0.672
same,relative viability,[15]; first compound 0.253 µM,0.578
same,relative viability,[15]; first compound 0.8 µM,0.385
same,relative viability,[15]; first compound 2.53 µM,0.403
same,relative viability,[16]; first compound 0.08 µM,0.686
same,relative viability,[16]; first compound 0.253 µM,0.54
same,relative viability,[16]; first compound 0.8 µM,0.604
same,relative viability,[16]; first compound 2.53 µM,0.529
same,relative viability,[17]; first compound 0.08 µM,0.279
same,relative viability,[17]; first compound 0.253 µM,0.309
same,relative viability,[17]; first compound 0.8 µM,0.283
same,relative viability,[17]; first compound 2.53 µM,0.333
same,relative viability,[18]; first compound 0.08 µM,0.325
same,relative viability,[18]; first compound 0.253 µM,0.226
same,relative viability,[18]; first compound 2.53 µM,0.172
same,relative viability,[19]; first compound 0.08 µM,0.897
same,relative viability,[19]; first compound 0.253 µM,0.671
same,relative viability,[19]; first compound 0.8 µM,0.845
same,relative viability,[19]; first compound 2.53 µM,0.7
same,relative viability,[20]; first compound 0.08 µM,0.556
same,relative viability,[20]; first compound 0.253 µM,0.345
same,relative viability,[20]; first compound 0.8 µM,0.576
same,relative viability,[20]; first compound 2.53 µM,0.487
same,relative viability,[21]; first compound 0.08 µM,0.427
same,relative viability,[21]; first compound 0.253 µM,0.336
same,relative viability,[21]; first compound 0.8 µM,0.282
same,relative viability,[21]; first compound 2.53 µM,0.241
same,relative viability,[22]; first compound 0.08 µM,0.749
same,relative viability,[22]; first compound 0.253 µM,0.664
same,relative viability,[22]; first compound 0.8 µM,0.746
same,relative viability,[22]; first compound 2.53 µM,0.689
same,relative viability,[23]; first compound 0.08 µM,0.452
same,relative viability,[23]; first compound 0.253 µM,0.358
same,relative viability,[23]; first compound 0.8 µM,0.339
same,relative viability,[23]; first compound 2.53 µM,0.54
